Test results published in patent US20170224667A1, “CANCER CHEMOPREVENTIVE AGENT” (KDL, Inc., priority 2014, published 2017).

Columns and labels:
[1] = system: lung cancer in patients with idiopathic pulmonary fibrosis; experiment: Lung cancer prevention in idiopathic pulmonary fibrosis patients allocated to pirfenidone or non-pirfenidone group; type: in vivo, human; settings: for Effect on risk of incidence of lung cancer: logistic regression analysis; for Accumulated incidence of lung cancer: FIG. 1
Excerpt: Thus, the present inventors evaluated the cancer chemoprevention effect of pirfenidone in idiopathic pulmonary fibrosis patients who are said to have a high risk factor of carcinogenesis. […] This efficacy was not explained by its effectiveness on idiopathic pulmonary fibrosis, and is therefore a novel activity of pirfenidone.
87 in the pirfenidone group (83 idiopathic pulmonary fibrosis, four nonspecific interstitial pneumonia) and 232 in the non-pirfenidone group (213 idiopathic pulmonary fibrosis, 18 nonspecific interstitial pneumonia, and one patient of desquamative interstitial pneumonia). The patients in the pirfenidone group received pirfenidone for 12-75 months (an average of 27.9±14.7 months). As a result, the incidence of lung cancer in the pirfenidone group was 2, whereas in the non-pirfenidone group it was 49. The duration of observation period in the pirfenidone group was 65.5±42.6 months, whereas in the control group it was 57.1±37.5 months. In addition, among 73 deaths in the non-pirfenidone group, 11 (4.7%) patients died by lung cancer, whereas among 29 deaths in the pirifenidone group, one (1.2%) patient died by lung cancer.
The accumulated incidences of lung cancer in patients with idiopathic pulmonary fibrosis not treated with pirfenidone after 1, 5, and 10 years were 0.9%, 18.3%, and 26.8%, whereas in patients treated with pirfenidone after 1, 5, and 10 years the accumulated incidences of lung cancer were 0%, 2.5%, and 6.4%.
The risk factors of incidence of lung cancer were analyzed using logistic regression analysis. As for the variables, backgrounds such as age, sex, number of packs of cigarettes smoked per day by the number of years the person has smoked (pack year), current smoking, pulmonary emphysema, stage of idiopathic pulmonary fibrosis, lung functions (% vital capacity(VC), and forced expiratory volume in 1 second as percent of forced vital capacity; FEV 1%), respiratory function (carbon monoxide lung diffusing capacity; % DLCO), and arterial oxygen partial pressure (PAO2); home oxygen therapy (use/no use), pirfenidone (use/no use), prednisolone (use/no use), N-acetyl cysteine (use/no use) and so forth were used. […] Then, the factors affecting the incidence of lung cancer were analyzed using multivariate Cox proportion hazard mode. Four variables were found as affecting factors. […] This supports the lung cancer protective efficacy of pirfenidone.

[2] = system: acute exacerbation in patients with idiopathic pulmonary fibrosis; settings: pre-treatment; non-patent document 6; cited from earlier work
malignant glioma cells = settings: non-patent document 4; cited from earlier work
[3] = system: fibrosis caused by pancreatic cancer; settings: non-patent document 5; cited from earlier work

SMILES	Effect on risk of incidence of lung cancer ([1]; use/no use)	Acute exacerbation caused by lung cancer surgery [2]	Proliferation of malignant glioma cells (malignant glioma cells)	Death by cancer (lung cancer), % ([1]; 87 patients in pirfenidone group) [%]	Death by cancer (lung cancer), % ([1]; 87 patients in pirfenidone group, listed as pirifenidone) [%]	Incidence of lung cancer, % ([1]; 87 patients in pirfenidone group, observation 65.5 ± 42.6 months, treatment 12-75 months) [%]	Accumulated incidence of lung cancer ([1]; after 1 year) [%]	Accumulated incidence of lung cancer ([1]; after 5 years) [%]	Accumulated incidence of lung cancer ([1]; after 10 years) [%]	Effect on risk of lung cancer ([1]; multivariate Cox proportion hazard model, in words)	Hazard ratio, risk of lung cancer ([1]; multivariate Cox proportion hazard model, use/no use)	Effect on fibrosis caused by pancreatic cancer [3]
CC(=O)N[C@@H](CS)C(=O)O [N-acetyl cysteine]	significantly decrease the risk factors of incidence of lung cancer											
Cc1ccc(=O)n(-c2ccccc2)c1 [Pirfenidone, 5-methyl-1-phenyl-2-(1H)-pyridone]	significantly decrease the risk factors of incidence of lung cancer	acute exacerbation was inhibited	inhibited proliferation	1.1	1.2	2.3	0	2.5	6.4	only factor decreasing the risk of lung cancer	0.128	inhibitory effects on fibrosis
